Results on 23 compounds are retold here after PubChem BioAssay AID330 (DTP/NCI, 2004).

The test system of the test is P388 leukemia ip, CD2F1 mice, survival T/C. Kind of test: NCI In Vivo Anticancer Drug Screen. Data for tumor model P388 Leukemia (intraperitoneal) in CD2F1 (CDF1) mice. The conditions noted are these: endpoint: median survival time, higher = longer survival. The gist of the method: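 Mice carrying the transplanted tumor received test compound or vehicle. Survival was recorded in each group, and the value is the treated-group measurement divided by that of the vehicle-treated control group.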

[1] abbreviates: dose: 100.0 mg/kg/injection, schedule: Q01DX009 (ip), vehicle: Klucel (hydroxypropylcellulose) (HPC).
The mark [2] stands for this setting: dose: 100.0 mg/kg/injection, schedule: Q01DX009 (ip), vehicle: saline with Tween-80.
The mark [3] stands for this setting: dose: 50.0 mg/kg/injection, schedule: Q01DX009 (ip), vehicle: saline with Tween-80.
The mark [4] stands for this setting: dose: 100.0 mg/kg/injection, schedule: Q04DX003 (ip), vehicle: saline with Tween-80.
[5] abbreviates: dose: 200.0 mg/kg/injection, schedule: Q04DX003 (ip), vehicle: saline with Tween-80.
Setting [6] is: dose: 60.0 mg/kg/injection, schedule: Q01DX005 (ip), vehicle: Klucel (hydroxypropylcellulose) (HPC).
[7] abbreviates: dose: 120.0 mg/kg/injection, schedule: Q01DX005 (ip), vehicle: Klucel (hydroxypropylcellulose) (HPC).
[8] abbreviates: dose: 100.0 mg/kg/injection, schedule: Q01DX001 (ip), vehicle: Klucel (hydroxypropylcellulose) (HPC).
Setting [9] is: dose: 200.0 mg/kg/injection, schedule: Q01DX001 (ip), vehicle: Klucel (hydroxypropylcellulose) (HPC).
The mark [10] stands for this setting: dose: 50.0 mg/kg/injection, schedule: Q01DX005 (ip), vehicle: saline with Tween-80.
The mark [11] stands for this setting: dose: 100.0 mg/kg/injection, schedule: Q01DX005 (ip), vehicle: saline with Tween-80.
The mark [12] stands for this setting: dose: 15.0 mg/kg/injection, schedule: Q01DX005 (ip), vehicle: saline with Tween-80.
[13] abbreviates: dose: 30.0 mg/kg/injection, schedule: Q01DX005 (ip), vehicle: saline with Tween-80.
[14] abbreviates: dose: 25.0 mg/kg/injection, schedule: Q01DX009 (ip), vehicle: water.
Where [15] appears, read: dose: 50.0 mg/kg/injection, schedule: Q01DX009 (ip), vehicle: water.
[16] abbreviates: dose: 100.0 mg/kg/injection, schedule: Q01DX009 (ip), vehicle: water.
Setting [17] is: dose: 200.0 mg/kg/injection, schedule: Q01DX009 (ip), vehicle: water.

“And” between values parts separate entries of the source, which are not always exact repeats. Equal entries are not always repeated. Inconclusive results and toxic doses are left out.

With `O=C(Nc1ccc([N+](=O)[O-])cc1)Nc1ccc([N+](=O)[O-])cc1` (tested in a mixture with another compound), the T/C reads like this: under setting [1], 103 % of control; under setting [2], 100 % of control; (dose: 200.0 mg/kg/injection, schedule: Q01DX009 (ip), vehicle: Klucel (hydroxypropylcellulose) (HPC)) 117 % of control; (dose: 200.0 mg/kg/injection, schedule: Q01DX009 (ip), vehicle: saline with Tween-80) 100 % of control; (dose: 400.0 mg/kg/injection, schedule: Q01DX009 (ip), vehicle: Klucel (hydroxypropylcellulose) (HPC)) 117 % of control; (dose: 400.0 mg/kg/injection, schedule: Q01DX009 (ip), vehicle: saline with Tween-80) 104 % of control.
In the case of `NCc1c(Cl)c(Cl)c(CN)c(Cl)c1Cl`, the T/C under setting [3] was 91 % of control; the T/C (dose: 50.0 mg/kg/injection, schedule: Q04DX003 (ip), vehicle: saline with Tween-80) is 91 % of control; the T/C under setting [2] is 91 % of control; the T/C under setting [4] is 91 % of control; the T/C under setting [5] is 87 % of control.
Consider `C/C(=N/N=C(N)N)c1cnn(C(=N)N)c1C`, for which the T/C is 99 % of control under setting [6] and 114 % of control under setting [7].
For `CCC(C)Nc1c(N)cc(C(F)(F)F)cc1N` (stereo not drawn), the T/C runs as follows: under setting [6], 98 % of control; under setting [7], 97 % of control; (dose: 240.0 mg/kg/injection, schedule: Q01DX005 (ip), vehicle: Klucel (hydroxypropylcellulose) (HPC)) 99 % of control.
With `COc1cc[n+](CCc2c[nH]c3ccccc23)cc1`, the T/C was 109 % of control (dose: 12.5 mg/kg/injection, schedule: Q01DX009 (ip), vehicle: saline with Tween-80); 104 % of control (dose: 25.0 mg/kg/injection, schedule: Q01DX009 (ip), vehicle: saline with Tween-80); 113 % of control under setting [3].
As to `CNCC(O)CC12CCC(c3ccccc31)c1ccccc12` (stereo not drawn), the T/C runs as follows: (dose: 50.0 mg/kg/injection, schedule: Q01DX009 (ip), vehicle: Klucel (hydroxypropylcellulose) (HPC)) 104 % of control; under setting [1], 106 % of control.
On to `Cc1cc2[nH]c(Cl)c(/C=N/Nc3ccccc3[N+](=O)[O-])c2cc1O`, for which the T/C is, setting by setting: (dose: 50.0 mg/kg/injection, schedule: Q01DX001 (ip), vehicle: Klucel (hydroxypropylcellulose) (HPC)) 96 % of control; under setting [8], 99 % of control; under setting [9], 90 % of control and 96 % of control.
Turning to `O=C1c2ccccc2C(=O)c2c(I)cccc21`, the T/C runs as follows: under setting [10], 97 % of control; under setting [11], 97 % of control.
For `CC12CC3CC(C)(C1)CC(SC(=N)N)(C3)C2`, the T/C by setting is: (dose: 7.5 mg/kg/injection, schedule: Q01DX005 (ip), vehicle: saline with Tween-80) 105 % of control; under setting [12], 104 % of control; under setting [13], 106 % of control.
Take `O=C(CCl)N1c2ccccc2Sc2ccccc21`: the T/C runs as follows: (dose: 12.5 mg/kg/injection, schedule: Q01DX009 (ip), vehicle: water) 105 % of control; under setting [14], 100 % of control; under setting [15], 107 % of control; under setting [16], 111 % of control; under setting [17], 114 % of control.
Regarding `N#CCCCCCCCCCCC(=O)O`, the T/C reads like this: (dose: 100.0 mg/kg/injection, schedule: Q01DX009 (ip), vehicle: saline) 93 % of control; (dose: 200.0 mg/kg/injection, schedule: Q01DX009 (ip), vehicle: saline) 91 % of control; (dose: 400.0 mg/kg/injection, schedule: Q01DX009 (ip), vehicle: saline) 94 % of control.
On to `CN(C)c1ccc(C(O)(Cc2cnc3ccccc3c2)c2ccc(N(C)C)cc2)cc1`, for which the T/C was 95 % of control under setting [4]; 103 % of control under setting [5]; 99 % of control (dose: 400.0 mg/kg/injection, schedule: Q04DX003 (ip), vehicle: saline with Tween-80).
`O=c1c2ccccc2on1CN1CCN(Cn2oc3ccccc3c2=O)CC1`: the T/C runs as follows: (dose: 50.0 mg/kg/injection, schedule: Q01DX005 (ip), vehicle: water) 106 % of control; (dose: 100.0 mg/kg/injection, schedule: Q01DX005 (ip), vehicle: water) 108 % of control; (dose: 200.0 mg/kg/injection, schedule: Q01DX005 (ip), vehicle: water) 111 % of control.
For `NC(Cc1ccccc1)C(=O)OCN1C(=O)C2C3C=CC(C2C1=O)C1C(=O)N(COC(=O)C(N)Cc2ccccc2)C(=O)C31` (stereo not drawn), the T/C reads like this: under setting [14], 100 % of control; under setting [15], 104 % of control; under setting [16], 114 % of control; under setting [17], 124 % of control.
Take `Cc1ccc(NCCCC2CCCN3CCCCC23)c2c(=O)c3cc(O)ccc3sc12` (stereo not drawn): the T/C (dose: 25.0 mg/kg/injection, schedule: Q01DX001 (ip), vehicle: saline with Tween-80) was 99 % of control; the T/C (dose: 50.0 mg/kg/injection, schedule: Q01DX001 (ip), vehicle: saline with Tween-80) was 98 % of control; the T/C (dose: 100.0 mg/kg/injection, schedule: Q01DX001 (ip), vehicle: saline with Tween-80) is 100 % of control.
With `c1ccc(CNNc2nn[nH]n2)cc1`, the T/C under setting [8] is 96 % of control; the T/C under setting [9] was 95 % of control; the T/C (dose: 400.0 mg/kg/injection, schedule: Q01DX001 (ip), vehicle: Klucel (hydroxypropylcellulose) (HPC)) was 96 % of control.
As for `COc1cc2c(c(OC)c1O)-c1ccc(OC)c(=O)cc1[C@@H](NC(=O)C(F)(F)F)CC2`, the T/C is, setting by setting: (dose: 2.5 mg/kg/injection, schedule: Q01DX009 (ip), vehicle: Klucel (hydroxypropylcellulose) (HPC)) 157 % of control; (dose: 5.0 mg/kg/injection, schedule: Q01DX005 (ip), vehicle: Klucel (hydroxypropylcellulose) (HPC)) 155 % of control; (dose: 5.0 mg/kg/injection, schedule: Q01DX009 (ip), vehicle: Klucel (hydroxypropylcellulose) (HPC)) 159 % of control and 163 % of control; (dose: 10.0 mg/kg/injection, schedule: Q01DX005 (ip), vehicle: Klucel (hydroxypropylcellulose) (HPC)) 155 % of control; (dose: 10.0 mg/kg/injection, schedule: Q01DX009 (ip), vehicle: Klucel (hydroxypropylcellulose) (HPC)) 182 % of control.
Regarding `O=C1c2c3c(c4c(c2C(=O)c2c5c(c6c(c21)CCC6)CCC5)CCCC4)CCCC3`, the T/C (dose: 20.0 mg/kg/injection, schedule: Q01DX009 (ip), vehicle: saline with Tween-80) was 100 % of control; the T/C (dose: 40.0 mg/kg/injection, schedule: Q01DX009 (ip), vehicle: saline with Tween-80) is 99 % of control; the T/C (dose: 80.0 mg/kg/injection, schedule: Q01DX009 (ip), vehicle: saline with Tween-80) was 93 % of control.
Turning to `CCC1CN2CCC1CC2C(O)c1ccnc2ccc(OC)cc12` (stereo not drawn), the T/C runs as follows: under setting [10], 100 % of control; under setting [11], 98 % of control.
With `Cc1c2ccncc2c(C)c2c1[nH]c1ccc(F)cc12`, the T/C (dose: 16.25 mg/kg/injection, schedule: Q04DX002 (ip), vehicle: Klucel (hydroxypropylcellulose) (HPC)) was 106 % of control and the T/C (dose: 32.5 mg/kg/injection, schedule: Q04DX002 (ip), vehicle: Klucel (hydroxypropylcellulose) (HPC)) was 106 % of control.
Take `CC1CN1CCS(=O)(=O)CCN1CC1C` (stereo not drawn): the T/C is, setting by setting: under setting [3], 95 % of control; under setting [2], 104 % of control.
Regarding `Nc1cc2nc(=O)cc3n2c(n1)SC3`, the T/C is, setting by setting: (dose: 50.0 mg/kg/injection, schedule: Q01DX005 (ip), vehicle: Klucel (hydroxypropylcellulose) (HPC)) 99 % of control; (dose: 100.0 mg/kg/injection, schedule: Q01DX005 (ip), vehicle: Klucel (hydroxypropylcellulose) (HPC)) 100 % of control; (dose: 200.0 mg/kg/injection, schedule: Q01DX005 (ip), vehicle: Klucel (hydroxypropylcellulose) (HPC)) 100 % of control.
As for `Brc1cn2[n+](c1)[B-]n1cc(Br)c[n+]1[B-]2`, the T/C under setting [12] is 100 % of control; the T/C under setting [13] is 100 % of control; the T/C (dose: 60.0 mg/kg/injection, schedule: Q01DX005 (ip), vehicle: saline with Tween-80) was 100 % of control and 101 % of control.
